Experimental data taken from paper PMC8488277, “Permeability Data of Organosulfur Garlic Compounds Estimated by Immobilized Artificial Membrane Chromatography: Correlation Across Several Biological Barriers” (Frontiers in Chemistry, 2021).
Read-outs that look alike come from different tables or passages of the source.

Assays:
[1] = IAM-HPLC chromatographic capacity factor (log k' IAM); format: physicochemical; conditions: IAM.PC.MG 12 µm column; isocratic ACN/0.035 M phosphate buffer pH 6.8 (30:70 v/v), 0.5 ml/min; k'=(Tr–T0)/T0; mean of 2–4 determinations
Experimental: Chromatographic analysis was performed using a Shimadzu LC 20A chromatograph coupled to a diode array detector, operated at a range of 210–260 nm, depending on the analyzed compound. A biomimetic commercially available column was used in all experiments: IAM. PC.MG12 µm (150 × 4.6 mm) was purchased from Regis Chemical Company (Morton Grove, IL).
OSC separation conditions under IAM-HPLC were adapted from [Luco et al. (2003]) and [Barbato et al. (1998]), with modifications. The chromatographic mode consisted in an isocratic elution used as the mobile phase ACN/0.035 M phosphate buffer −pH 6.8− (30:70 (v/v)) at 0.5 ml min^−1. The column dead time (T0) was estimated by ascorbic acid retention time which was measured at 210 nm. The obtained retention data were used to calculate the chromatographic parameter corresponding to the capacity factor k’ as follows: k’ = (Tr–T0)/T0. All capacity factors given represent the mean of 2–4 determinations of each sample solution.
For this study, we considered 28 phytochemical compounds containing sulfur-based groups. […] Most of these compounds are garlic-derived substances with bioactive functions. […] We chose them because of their bioactive functionality and their similar metabolism within the plants and human body. Each analytical standard stock solution was prepared in the mobile phase at concentrations ranging from 100 to 800 µg ml^−1, depending on the solubility of the compound and their DAD detector response. Peak identification in samples was carried out by comparing retention times with reference standards.

[2] = cited from earlier work
[3] = parameters: method as in Torres-Palazzolo et al. (2018); conditions: ref Torres-Palazzolo et al. (2018); cited from earlier work
[4] = parameters: method as in Egen-Schwind et al., 1992; conditions: ref Egen-Schwind et al., 1992, cited from earlier work; for lipophilicity (relative, in words): 1,3- vs 1,2-vinyldithiin; for elimination / tissue accumulation: serum, kidney, fat tissue

Molecule	Log (k'IAM) [1]	also measured
CSSC [Dimethyl disulfide, dimethyl disulfide]	−0.017	–
CCSSCC [Ethyl disulfide]	0.420	–
C=CCSSSCC=C [Diallyl Trisulfide, diallyl trisulfide]	0.781	cellular permeability (in words) ([2]; not told): high cellular permeability
CCSCC [Ethyl sulfide]	−0.099	–
S=C=NCCc1ccccc1 [Phenethyl isothiocyanate]	0.663	–
c1coc(CSSCc2ccco2)c1 [Furfuryl disulfide, furfuryl disulfide]	0.713	–
CCCSSSC [Methyl Propyl Trisulfide]	0.810	–
C[S+]([O-])/C=C/CCN=C=S (stereo not drawn) [Sulforaphene, S-sulforaphene]	−0.521	–
CCCSSCCC [Propyl disulfide]	0.913	–
C=CCS [Allyl mercaptan]	−0.197	–
OCc1c[nH]c2ccccc12 [Indole-3-carbinol, indole-3-carbinol]	−0.204	–
S=C=NCc1ccccc1 [Benzyl isothiocyanate]	0.571	–
S-methyl-L-cysteine	−1.322	–
S-propyl-L-cysteine	−1.645	–
S=C=Nc1ccccc1 [Phenyl isothiocyanate]	0.746	–
C[S+]([O-])C[C@H](N)C(=O)O (single isomer, unassigned; (+)) [Methiin, (+)-S-methyl-L-cysteine sulfoxide]	−1.922	–
C=CCSS/C=C/C[S+]([O-])CC=C (stereo not drawn) [E-Ajoene]	0.022	–
C=CC1SC=CCS1 (stereo not drawn) [2-vinyldithiin, 2-Vinyl-4H-1,3-dithiine]	0.237	permeation through the intestine [3]: less than 5%; lipophilicity (relative, in words) [4]: less lipophilic; elimination / tissue accumulation [4]: rapidly eliminated from serum, the kidney, and fat tissue
CC=C[S+]([O-])C[C@H](N)C(=O)O (stereo in doubt) [Isoalliin, (+)-S-trans-1-propenyl-L-cysteine sulfoxide]	−0.734	–
C=CCN=C=S [Allyl isothiocyanate]	0.118	–
C=CCSC [Allyl methyl sulfide, allyl methyl sulfide]	−1.021	–
C=CC1CC=CSS1 (stereo not drawn) [1,2-vinyldithiin]	–	lipophilicity (relative, in words) [4]: more lipophilic; elimination / tissue accumulation [4]: showed a tendency to accumulate in fat tissues
C=CCS[S+]([O-])CC=C (stereo not drawn) [Allicin, diallyl thiosulfinate]	−0.409	permeation through the intestine [3]: less than 5%; cellular permeability (in words) ([2]; ref Rahman, 2007): can easily permeate cell membranes of phospholipids bilayers; metabolism (in words) ([2]; ref Rahman, 2007): rapidly metabolized and transformed into other active compounds
C=CCSS/C=C\C[S+]([O-])CC=C (stereo not drawn) [Z-Ajoene]	0.015	–
S-allyl-L-cysteine	−1.102	cellular permeability (in words) ([2]; ref Rahman, 2007): high cellular permeability
C[S+]([O-])CCCCN=C=S (stereo not drawn) [Sulforaphane, sulforaphane]	−0.514	–
C=CCSSCC=C [Diallyl disulfide, diallyl disulfide]	0.554	cellular permeability (in words) ([2]; ref Rahman, 2007): high cellular permeability
C=CCSCC=C [Diallyl sulfide, diallyl sulfide]	0.222	permeation through the intestine [3]: less than 5%
